Measurements as given in patent publication US6916484B1, “Aqueous pharmaceutical composition containing moxifloxacin or salts thereof” (Bayer Aktiengesellschaft, priority 1999, dated 2005).
Counter-ions that a name gives are not always drawn.

Test: Saturation solubility of moxifloxacin hydrochloride in water
Assay type: physicochemical
Details: aqueous solution, room temperature
Protocol: Accordingly, freshly prepared solutions of moxifloxacin with sugars and/or sugar alcohols have, even if they have relatively high iron contents, a sufficient stability against the formation of particles for the period of use of, preferably, up to 12 hours after preparation. Thus, the problem to be solved by the invention can also be overcome by iron-containing solutions for infusion which are used immediately after preparation. Here, it is expedient to use a process in which a pre-formed concentrated aqueous solution of moxifloxacin or a salt thereof and a pre-formed solution of the sugar and/or the sugar alcohols are mixed with one another. […] The concentrated aqueous solution of moxifloxacin id hydrochloride preferably contains from 0.4% (w/v) to 2.4% (w/v) of moxifloxacin (calculated as betaine). […] The active compound concentrate preferably comprises from 1.0 to 2.0% (w/v) of moxifloxacin (calculated as betaine), particularly preferably 2.0% (w/v) of moxifloxacin (calculated as betaine). […]

For `COc1c(N2C[C@@H]3CCCN[C@@H]3C2)c(F)cc2c(=O)c(C(=O)O)cn(C3CC3)c12` [moxifloxacin hydrochloride, 1-cyclopropyl-7-([S,S]-2,8-diazabicyclo[4.3.0]non-8-yl)-6-fluoro-1,4-dihydro-8-methoxy-4-oxo-3-quinolonecarboxylic acid], the saturation solubility was “about 2.4 % (w/v)”.
